In PubChem BioAssay (NCI):
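Results reflect a 48-hour exposure of cells in 96-well plates to compound at five concentrations. The concentration for full growth arrest is given as TGI.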 Where a SMILES comes first, the peptide text is derived from it. [ ]: non-standard residue; d: D form. The star is where a group is joined. ξ: configuration not given here. X37 = O=C(OCc1ccccc1)[C@@H]1CCC[C@H]1N*; Fmoc = O=C(OCC1c2ccccc2-c2ccccc21)*; ξW = NC(Cc1c[nH]c2ccccc12)C(=O)O; ξF = NC(Cc1ccccc1)C(=O)O; Boc = CC(C)(C)OC(=O)*; ξK = NCCCCC(N)C(=O)O; ξT = CC(O)C(N)C(=O)O; tBu = CC(C)(C)*

Columns and labels:
Assay in all cases: DTP human tumour cell line panel, 48 h
[1] = tested on: SF-295 CNS
[2] = tested on: RXF 393 renal
[3] = tested on: A498 renal
[4] = tested on: MDA-MB-231 breast
[5] = tested on: SNB-19 CNS
[6] = tested on: OVCAR-4 ovarian
[7] = tested on: HOP-62 NSCLC
[8] = tested on: A549 NSCLC
[9] = tested on: SN12C renal
[10] = tested on: SK-MEL-2 melanoma
[11] = tested on: BT-549 breast
[12] = tested on: SK-MEL-5 melanoma
[13] = tested on: ACHN renal
[14] = tested on: UO-31 renal
[15] = tested on: HT29 colon
[16] = tested on: EKVX NSCLC
[17] = tested on: SK-MEL-28 melanoma
[18] = tested on: NCI-H460 lung
[19] = tested on: NCI-H23 lung
[20] = tested on: RPMI-8226 leukemia
[21] = tested on: 786-0 renal
[22] = tested on: IGROV1 ovarian
[23] = tested on: PC-3 prostate
[24] = tested on: HCC-2998 colon
[25] = tested on: SF-268 CNS
[26] = tested on: U251 CNS
[27] = tested on: HL-60(TB) leukemia
[28] = tested on: CCRF-CEM leukemia
[29] = tested on: NCI/ADR-RES ovarian
[30] = tested on: UACC-257 melanoma
[31] = tested on: SNB-75 CNS
[32] = tested on: MOLT-4 leukemia
[33] = tested on: SF-539 CNS
[34] = tested on: HCT-116 colon
[35] = tested on: TK-10 renal
[36] = tested on: HOP-92 NSCLC
[37] = tested on: NCI-H522 lung
[38] = tested on: SR leukemia
[39] = tested on: MALME-3M melanoma
[40] = tested on: HS 578T breast
[41] = tested on: MCF7 breast
[42] = tested on: SW-620 colon
[43] = tested on: NCI-H226 lung
[44] = tested on: SK-OV-3 ovarian
[45] = tested on: MDA-N
[46] = tested on: LOX IMVI melanoma
[47] = tested on: OVCAR-5 ovarian
[48] = tested on: COLO 205 colon
[49] = tested on: MDA-MB-435
[50] = tested on: CAKI-1 renal
[51] = tested on: DU-145 prostate
[52] = tested on: OVCAR-3 ovarian
[53] = tested on: M14 melanoma
[54] = tested on: KM12 colon
[55] = tested on: K-562 leukemia
[56] = tested on: T-47D breast
[57] = tested on: HCT-15 colon
[58] = tested on: UACC-62 melanoma
[59] = tested on: OVCAR-8 ovarian

CC1(C)OC1CC/C(=C/CBr)CBr (stereo unspecified)
TGI [1]: 27.6 µM
TGI [2]: 31.2 µM
TGI [3]: 47.9 µM
TGI [4]: 30.1 µM
TGI [5]: 28.6 µM
TGI [6]: 32.1 µM
TGI [7]: 31.6 µM
TGI [8]: 53.1 µM
TGI [9]: 29.1 µM
TGI [10]: 29 µM
TGI [11]: 30.4 µM
TGI [12]: 27.5 µM
TGI [13]: 30.9 µM
TGI [14]: 28.9 µM
TGI [15]: 30 µM
TGI [16]: 33.3 µM
TGI [17]: 31.5 µM
TGI [18]: 29 µM
TGI [19]: 29.6 µM
TGI [20]: 40.7 µM
TGI [21]: 28.7 µM
TGI [22]: 27.3 µM
TGI [23]: 29.3 µM
TGI [24]: 29.8 µM
TGI [25]: 29 µM
TGI [26]: 29.3 µM
TGI [27]: 23.9 µM
TGI [28]: 34.1 µM
TGI [29]: 49.6 µM
TGI [30]: 28.8 µM
TGI [31]: 21 µM
TGI [32]: 57.9 µM
TGI [33]: 32.2 µM
TGI [34]: 33 µM
TGI [35]: 32.5 µM
TGI [36]: 29.4 µM
TGI [37]: 23.5 µM
TGI [38]: 64.6 µM
TGI [39]: 36.9 µM
TGI [40]: 47.7 µM
TGI [41]: 28.5 µM
TGI [42]: 28.7 µM
TGI [43]: 48.4 µM
TGI [44]: 48.5 µM
TGI [45]: 29.3 µM
TGI [46]: 22.3 µM
TGI [47]: 31.5 µM
TGI [48]: 29.4 µM
TGI [49]: 31.9 µM
TGI [50]: 32.3 µM
TGI [51]: 55.6 µM
TGI [52]: 33.7 µM
TGI [53]: 36.5 µM
TGI [54]: 29.9 µM
TGI [55]: 49 µM

CC(OC(C)(C)C)C(NC(=O)C(CCCCNC(=O)OC(C)(C)C)NC(=O)C(Cc1c[nH]c2ccccc12)NC(=O)C(Cc1ccccc1)NC(=O)OCC1c2ccccc2-c2ccccc21)C(=O)NC(Cc1ccccc1)C(=O)N[C@@H]1CCC[C@H]1C(=O)OCc1ccccc1 (stereo partly specified) (Fmoc-[ξF][ξW][ξK](Boc)[ξT](tBu)[ξF]-X37)
TGI [1]: > 100 µM
TGI [2]: > 100 µM
TGI [4]: > 100 µM
TGI [6]: > 100 µM
TGI [7]: > 100 µM
TGI [8]: > 100 µM
TGI [9]: > 100 µM
TGI [10]: > 100 µM
TGI [12]: > 100 µM
TGI [13]: > 100 µM
TGI [14]: > 100 µM
TGI [15]: > 100 µM
TGI [16]: > 100 µM
TGI [17]: > 100 µM
TGI [56]: > 100 µM
TGI [18]: > 100 µM
TGI [19]: > 100 µM
TGI [20]: > 100 µM
TGI [21]: > 100 µM
TGI [22]: > 100 µM
TGI [23]: > 100 µM
TGI [24]: > 100 µM
TGI [25]: > 100 µM
TGI [26]: > 100 µM
TGI [27]: > 100 µM
TGI [28]: > 100 µM
TGI [29]: > 100 µM
TGI [30]: > 100 µM
TGI [31]: > 100 µM
TGI [32]: > 100 µM
TGI [33]: > 100 µM
TGI [34]: > 100 µM
TGI [35]: > 100 µM
TGI [36]: > 100 µM
TGI [37]: > 100 µM
TGI [38]: > 100 µM
TGI [57]: > 100 µM
TGI [39]: > 100 µM
TGI [40]: > 100 µM
TGI [41]: > 100 µM
TGI [42]: > 100 µM
TGI [43]: > 100 µM
TGI [44]: > 100 µM
TGI [45]: > 100 µM
TGI [46]: > 100 µM
TGI [47]: > 100 µM
TGI [48]: > 100 µM
TGI [49]: > 100 µM
TGI [50]: > 100 µM
TGI [58]: > 100 µM
TGI [59]: > 100 µM
TGI [51]: > 100 µM
TGI [52]: > 100 µM
TGI [53]: > 100 µM
TGI [54]: > 100 µM
TGI [55]: > 100 µM
